One assay concerns A673 cells. Description: Inhibition of proliferation of A673 cells (CyQUANT, 72 hour). The class given is cell-based, human. Conditions: 72 hour proliferation. As to the method: A673 cells are a cell line derived from human muscle Ewing's sarcoma. Representative compounds of the invention were tested at different concentrations (from 4 μM to 126.4 pM; 0.5 log serial dilutions) for their ability to inhibit the proliferation of A673 cells. Known CDK inhibitors flavopiridol and triptolide were used as positive controls. Cells were grown in Dulbecco's Modified Eagle's Medium, +10% FBS+1 mM Sodium Pyruvate. The cells were cultured at 37° C. in a humidified chamber in the presence of 5% CO2. Proliferation assays were conducted over a 72 hour time period. CyQUANT® (Life Technologies, Chicago, Ill. USA) was used to assess the anti-proliferative effects of the compounds following manufacturer's directions and utilizing the reagents supplied with the CyQUANT® kit. In this table, “A” represents an IC50 of less than 500 nM; “B” an IC50 of between 500 nM and 5 μM; and “C” an IC50 of greater than 5 μM.

In assay [1] the target is CDK7/Cyclin H/MAT1 trimeric complex (Homo sapiens, UniProt P50613). Description: CDK7 kinase assay, Caliper/LabChip EZ Reader (Biortus Biosciences). Conditions: CDK7/Cyclin H/MAT1 10 nM, ATP 2 mM, FAM-CDK7tide 2 μM, 30 min incubation, read-out: CDK7 Inhibition (IC50). The format is biochemical. Here is the method:
Compounds of the invention were further assayed for CDK7 activity at Biortus Biosciences (Jiangyin, Jiangsu Province, P.R. of China) using a CDK7 kinase assay developed with a Caliper/LabChip EZ Reader (Perkin Elmer, Waltham, Mass.). […] The incubation period was chosen such that the total fraction of phosphorylated peptide product produced was <20% for the uninhibited kinase.

The values below come from US10106526B2, “Inhibitors of cyclin-dependent kinase 7 (CDK7)” (SYROS PHARMACEUTICALS, INC., priority 2014, dated 2018).

One may read the IC50 as the concentration needed to halve the response being measured.

CDK7/Cyclin H/MAT1 trimeric complex, sequence (P50613 whole entry): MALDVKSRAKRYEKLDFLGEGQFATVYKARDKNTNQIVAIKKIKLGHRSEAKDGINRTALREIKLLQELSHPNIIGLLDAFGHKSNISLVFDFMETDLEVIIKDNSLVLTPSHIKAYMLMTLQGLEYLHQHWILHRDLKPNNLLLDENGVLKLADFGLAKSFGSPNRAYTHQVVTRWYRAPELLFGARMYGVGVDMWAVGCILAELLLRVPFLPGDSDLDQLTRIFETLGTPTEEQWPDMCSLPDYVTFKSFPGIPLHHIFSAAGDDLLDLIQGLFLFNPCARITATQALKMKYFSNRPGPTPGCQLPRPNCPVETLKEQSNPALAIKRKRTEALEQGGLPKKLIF
CDK7/Cyclin H/MAT1 trimeric complex, sequence (P51946 whole entry partner): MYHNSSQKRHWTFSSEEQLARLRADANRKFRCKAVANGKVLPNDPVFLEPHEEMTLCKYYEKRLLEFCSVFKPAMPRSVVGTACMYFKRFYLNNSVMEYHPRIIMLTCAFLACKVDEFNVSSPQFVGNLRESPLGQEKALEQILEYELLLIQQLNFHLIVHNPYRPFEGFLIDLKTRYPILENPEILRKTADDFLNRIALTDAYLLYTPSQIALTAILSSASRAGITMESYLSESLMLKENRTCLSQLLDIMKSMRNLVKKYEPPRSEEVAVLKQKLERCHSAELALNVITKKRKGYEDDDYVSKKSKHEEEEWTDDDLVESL
CDK7/Cyclin H/MAT1 trimeric complex, sequence (P51948 whole entry partner): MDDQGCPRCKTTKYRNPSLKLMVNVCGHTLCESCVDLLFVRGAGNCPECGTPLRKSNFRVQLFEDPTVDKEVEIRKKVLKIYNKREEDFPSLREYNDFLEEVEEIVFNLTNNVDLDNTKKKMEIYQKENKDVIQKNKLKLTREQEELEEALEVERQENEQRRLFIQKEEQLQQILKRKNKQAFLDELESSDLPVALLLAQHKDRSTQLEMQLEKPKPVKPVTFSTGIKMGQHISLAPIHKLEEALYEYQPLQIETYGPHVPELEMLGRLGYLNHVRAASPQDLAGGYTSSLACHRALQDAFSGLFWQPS

As to `C=CC(=O)N1CCC(CNC2(C)CCCC(Nc3ncc(Cl)c(-c4c[nH]c5ccccc45)n3)C2)CC1` (stereo not drawn) [Compound 268], the IC50 in the assay with A673 cells is less than 500 nM; in assay [1] it was less than 100 nM.
Consider `C=CC(=O)N1CCN([C@H]2CCC[C@@H](Nc3ncc(Cl)c(-c4cnc5ccccn45)n3)C2)CC1` [Compound 414, 1-[4-[(1S,3R)-3-[(5-chloro-4-imidazo[1,2-a]pyridin-3-yl-pyrimidin-2-yl)amino]cyclohexyl]piperazin-1-yl]prop-2-en-1-One], for which the IC50 was less than 500 nM in the assay on A673 cells (Homo sapiens) and 100 to 1000 nM in assay [1].
Take `C=CC(=O)N1CC(F)(F)C[C@H]1C(=O)N[C@H]1CCC[C@@H](Nc2ncc(Cl)c(-c3n[nH]c4ccccc34)n2)C1` [compound 391]: the figures for the IC50 (with A673 cells; in assay [1]) were less than 500 nM and less than 100 nM, respectively.
Regarding `C=CC(=O)N1CCN([C@@]23CCC[C@@](Nc4ncc(Cl)c(-c5c[nH]c6ccccc56)n4)(CC2)C3)CC1` [Compound 409, 1-(4-((1S,5R)-5-(5-chloro-4-(1H-indol-3-yl)pyrimidin-2-ylamino)bicyclo[3.2.1]octan-1-yl)piperazin-1-yl)prop-2-en-1-One], the IC50 in the assay on A673 cells (Homo sapiens) was less than 500 nM; in assay [1], less than 100 nM.
The like results for `C=CC(=O)N1CCN([C@H]2CCC[C@@H](Nc3ncc(Cl)c(-c4nnc5ccccn45)n3)C2)CC1` [Compound 344, 1-(4-((1S,3R)-3-((4-([1,2,4]triazolo[4,3-a]pyridin-3-yl)-5-chloropyrimidin-2-yl)amino)cyclohexyl)piperazin-1-yl)prop-2-en-1-One] were, in that order, less than 500 nM and less than 100 nM.
On to `CN(C)C/C=C/C(=O)Nc1ccc(CN[C@@]2(C)CCC[C@@H](Nc3ncc(Cl)c(-c4c[nH]c5ccccc45)n3)C2)nc1` [Compound 294, (E)-N-(6-(((1S,3R)-3-(5-chloro-4-(1H-indol-3-yl)pyrimidin-2-ylamino)-1-methylcyclohexylamino)methyl)pyridin-3-yl)-4-(dimethylamino)but-2-enamide], for which the IC50 with A673 cells (Homo sapiens) is less than 500 nM; in assay [1], less than 100 nM.
Regarding `C=CC(=O)NC1CCCN(C2CCCC(Nc3ncc(Cl)c(-c4c[nH]c5ccccc45)n3)C2)C1` (mixture of isomers) [Compound 256], the IC50 in the assay on A673 cells was less than 500 nM; in assay [1], less than 100 nM.
Take `C=CC(=O)Nc1ccc(CN[C@H]2CCC[C@@H](Nc3ncc(Cl)c(-c4c[nH]c5ccccc45)n3)C2)nc1` [Compound 258]: the IC50 in the assay on A673 cells (Homo sapiens) was less than 500 nM; in assay [1] it was less than 100 nM.
Turning to `CN(C)C/C=C/C(=O)Nc1ccc(C(=O)N[C@H]2CCC[C@@H](Nc3ncc(Cl)c(-c4cccc5[nH]ccc45)n3)C2)nc1` [Compound 264, N-((1S,3R)-3-((5-chloro-4-(1H-indol-4-yl)pyrimidin-2-yl)amino)cyclohexyl)-5-((E)-4-(dimethylamino)but-2-enamido)picolinamide], the IC50 in the assay on A673 cells (Homo sapiens) is less than 500 nM; in assay [1], less than 100 nM.
As for `C=CC(=O)N1CCN(C2CCCC(Nc3ncc(Cl)c(-c4c[nH]c5ccccc45)n3)C2)C(C)C1` (stereo not drawn) [Compound 257], the IC50 is less than 500 nM in the assay on A673 cells and 100 to 1000 nM in assay [1].
As to `CN(C)C/C=C/C(=O)Nc1ccc(CN[C@@]2(C)CCC[C@@H](Nc3ncc(C(F)(F)F)c(-c4c[nH]c5ccccc45)n3)C2)nc1` [Compound 403, (E)-4-(dimethylamino)-N-[6-[[[(1S,3R)-3-[[4-(1H-indol-3-yl)-5-(trifluoromethyl)pyrimidin-2-yl]amino]-1-methylcyclohexyl]amino]methyl]-3-pyridyl]but-2-enamide], the IC50 is less than 500 nM with A673 cells (Homo sapiens) and less than 100 nM in assay [1].
The like results for `C=CC(=O)N1CCN([C@H]2CCC[C@@H](Nc3ncc(Cl)c(-c4c[nH]c5ccc(OC)cc45)n3)C2)CC1` [Compound 375, 1-(4-((1S,3R)-3-(5-chloro-4-(5-methoxy-1H-indol-3-yl)pyrimidin-2-ylamino)cyclohexyl)piperazin-1-yl)prop-2-en-1-One] were, in that order, less than 500 nM and more than 1000 nM.
